According to US11986471B2, “Compounds and methods of use” (Tango Therapeutics, Inc., priority 2018, dated 2024):

Key:
HAP1 MTAP-deleted = experiment: SDMA in-cell western assay, HAP1 MTAP-deleted cell line; type: cell-based; conditions: for IC50: Homo sapiens, HAP1 MTAP-deleted cell line; for MTAP Intact/Deleted Ratio: IC50 ratio HAP1 MTAP-intact / HAP1 MTAP-deleted
Outline: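 These are IC50 values from an in-cell western measuring SDMA. The HAP1 cells used carry no MTAP, in contrast to the isogenic partner line with endogenous MTAP expression.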

HAP1 MTAP-intact = experiment: SDMA in-cell western assay, HAP1 MTAP-intact cell line; type: cell-based; conditions: Homo sapiens
Outline: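 Potency reflects cellular SDMA reduction, detected by in-cell western, in HAP1 cells with or without MTAP (endogenous expression versus null).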

PRMT5 [1] = target: T1, PRMT5 (Homo sapiens, UniProt O14744); experiment: PRMT5 IC50 assay in the presence of MTA as cofactor; type: biochemical; conditions: for IC50: PRMT5, MTA as cofactor; for SAM/MTA Ratio: ratio between the Ki in the presence of SAM and the Ki in the presence of MTA
T1 construct: purchased Viva (custom protein)
T1 sequence (O14744 whole entry): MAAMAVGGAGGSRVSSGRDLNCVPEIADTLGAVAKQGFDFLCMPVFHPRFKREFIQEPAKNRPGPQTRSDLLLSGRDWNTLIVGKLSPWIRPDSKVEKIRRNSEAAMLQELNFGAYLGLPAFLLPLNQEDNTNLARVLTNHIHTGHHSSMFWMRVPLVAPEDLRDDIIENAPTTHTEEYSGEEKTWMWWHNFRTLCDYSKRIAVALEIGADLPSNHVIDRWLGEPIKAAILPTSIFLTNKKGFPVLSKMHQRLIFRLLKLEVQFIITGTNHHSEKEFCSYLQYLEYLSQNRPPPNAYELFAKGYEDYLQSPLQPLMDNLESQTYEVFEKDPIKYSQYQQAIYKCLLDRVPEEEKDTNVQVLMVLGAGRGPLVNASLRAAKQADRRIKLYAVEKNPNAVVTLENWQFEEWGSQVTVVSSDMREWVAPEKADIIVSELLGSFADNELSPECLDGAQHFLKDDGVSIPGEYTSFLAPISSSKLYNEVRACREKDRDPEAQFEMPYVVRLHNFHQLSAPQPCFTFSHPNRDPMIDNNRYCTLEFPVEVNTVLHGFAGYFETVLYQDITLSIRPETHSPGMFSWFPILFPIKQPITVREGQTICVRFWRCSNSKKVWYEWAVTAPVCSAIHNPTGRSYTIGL
T1 sequence (Q9BQA1 whole entry partner): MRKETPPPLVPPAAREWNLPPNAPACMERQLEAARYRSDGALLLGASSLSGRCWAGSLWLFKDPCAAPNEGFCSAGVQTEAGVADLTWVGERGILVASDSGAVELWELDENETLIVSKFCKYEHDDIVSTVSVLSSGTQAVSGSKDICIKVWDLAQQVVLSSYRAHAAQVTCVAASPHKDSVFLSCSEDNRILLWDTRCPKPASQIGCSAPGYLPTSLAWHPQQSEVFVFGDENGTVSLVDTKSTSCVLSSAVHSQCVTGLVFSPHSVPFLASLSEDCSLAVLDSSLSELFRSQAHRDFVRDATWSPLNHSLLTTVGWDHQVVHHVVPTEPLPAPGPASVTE
Outline: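 Potency against PRMT5 is compared across cofactor states, where IC50 equals Ki×1.5 with SAM present and Ki×13.5 with MTA present.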

PRMT5 [2] = target: T1, PRMT5; experiment: PRMT5 IC50 assay with no cofactor; type: biochemical
Outline: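 Each compound is tested on PRMT5 in the presence of SAM, of MTA, and without any cofactor. Ki values are then back-calculated using fixed factors of 1.5 (SAM) and 13.5 (MTA), and the two Ki values are compared as a ratio.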

PRMT5 [3] = target: T1, PRMT5; experiment: PRMT5 IC50 assay in the presence of SAM as cofactor; type: biochemical
Outline: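 Human PRMT5 inhibition, IC50 in μM; cofactor varied (SAM / MTA / none).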

SMILES | IC50 (HAP1 MTAP-deleted) | IC50 (HAP1 MTAP-intact) | IC50 (PRMT5 [1]) | IC50 (PRMT5 [2]) | IC50 (PRMT5 [3]) | MTAP Intact/Deleted Ratio (HAP1 MTAP-deleted) | SAM/MTA Ratio (PRMT5 [1])
Cc1ncoc1COc1ccc2c(c1C)CCN(C[C@@H](O)CNC(=O)c1cc(NC3COC3)nc(N3CCN(C(C)(C)C)CC3)n1)C2 [Compound 435, 2-(4-tert-butylpiperazin-1-yl)-N-[(2S)-2-hydroxy-3-{5-methyl-6-[(4-methyl-1,3-oxazol-5-yl)methoxy]-1,2,3,4-tetrahydroisoquinolin-2-yl}propyl]-6-[(oxetan-3-yl)amino]pyrimidine-4-carboxamide] | ≥ 10000 nM | ≥ 10000 nM | 50 to 500 nM | ≥ 5000 nM | 50 to 500 nM | C* (an IC50 ratio of less than 3 fold between the IC50 in the HAP1 MTAP-intact cell line and the HAP1 MTAP-deleted cell line) | A (a Ki ratio greater than or equal to 10 fold between the Ki in the presence of SAM and the Ki in the presence of MTA)
Cc1c(OCc2cnco2)ccc2c1CCN(C[C@@H](O)CNC(=O)c1cc(NC3CCCCC3)ncn1)C2 [Compound 436, 6-(cyclohexylamino)-N-[(2S)-2-hydroxy-3-{5-methyl-6-[(1,3-oxazol-5-yl)methoxy]-1,2,3,4-tetrahydroisoquinolin-2-yl}propyl]pyrimidine-4-carboxamide] | ≥ 10000 nM | ≥ 10000 nM | 500 to 5000 nM | ≥ 5000 nM | 500 to 5000 nM | C* (an IC50 ratio of less than 3 fold between the IC50 in the HAP1 MTAP-intact cell line and the HAP1 MTAP-deleted cell line) | A (a Ki ratio greater than or equal to 10 fold between the Ki in the presence of SAM and the Ki in the presence of MTA)
CCN(C)c1cc(C(=O)NC[C@H](O)CN2CCc3cc(OCc4cnco4)ccc3C2)cc(NC2CCC2)n1 [Compound 438, (S)-2-(cyclobutylamino)-6-(ethyl(methyl)amino)-N-(2-hydroxy-3-(6-(oxazol-5-ylmethoxy)-3,4-dihydroisoquinolin-2(1H)-yl)propyl)isonicotinamide] | 1000 to 10000 nM | 1000 to 10000 nM | 50 to 500 nM | ≥ 5000 nM | 500 to 5000 nM | C* (an IC50 ratio of less than 3 fold between the IC50 in the HAP1 MTAP-intact cell line and the HAP1 MTAP-deleted cell line) | A (a Ki ratio greater than or equal to 10 fold between the Ki in the presence of SAM and the Ki in the presence of MTA)
Cc1ncoc1COc1ccc2c(c1C)CCN(C[C@@H](O)CNC(=O)c1ccc(OC3CCN(Cc4ccncc4)CC3)cc1)C2 [Compound 440, N-[(2S)-2-hydroxy-3-{5-methyl-6-[(4-methyl-1,3-oxazol-5-yl)methoxy]-1,2,3,4-tetrahydroisoquinolin-2-yl}propyl]-4-({1-[(pyridin-4-yl)methyl]piperidin-4-yl}oxy)benzamide] | 1000 to 10000 nM | ≥ 10000 nM | 50 to 500 nM | 500 to 5000 nM | 50 to 500 nM | B* (an IC50 ratio greater than or equal to 3 fold but lower than 10 fold between the IC50 in the HAP1 MTAP-intact cell line and the HAP1 MTAP-deleted cell line) | A (a Ki ratio greater than or equal to 10 fold between the Ki in the presence of SAM and the Ki in the presence of MTA)
O=C(NC[C@H](O)CN1CCc2c(ccc(OCc3cnco3)c2Cl)C1)c1ccnc(NC2CC3(C2)CC3(F)F)c1 (stereo partly shown) [Compound 441] | 1000 to 10000 nM | ≥ 10000 nM | 50 to 500 nM | 500 to 5000 nM | 50 to 500 nM | C* (an IC50 ratio of less than 3 fold between the IC50 in the HAP1 MTAP-intact cell line and the HAP1 MTAP-deleted cell line) | A (a Ki ratio greater than or equal to 10 fold between the Ki in the presence of SAM and the Ki in the presence of MTA)

Second part, led by results:

IC50 (HAP1 MTAP-deleted) | IC50 (HAP1 MTAP-intact) | IC50 (PRMT5 [1]) | IC50 (PRMT5 [2]) | IC50 (PRMT5 [3]) | SMILES | MTAP Intact/Deleted Ratio (HAP1 MTAP-deleted) | SAM/MTA Ratio (PRMT5 [1])
1000 to 10000 nM | ≥ 10000 nM | 50 to 500 nM | 500 to 5000 nM | 50 to 500 nM | CC(C)(C)C(=O)N1CCC(Nc2cc(C(=O)NC[C@H](O)CN3CCc4c(ccc(OCc5cnco5)c4Cl)C3)ccn2)CC1 [Compound 432, (S)—N-(3-(5-chloro-6-(oxazol-5-ylmethoxy)-3,4-dihydroisoquinolin-2(1H)-yl)-2-hydroxypropyl)-2-((1-pivaloylpiperidin-4-yl)amino)isonicotinamide] | B* (an IC50 ratio greater than or equal to 3 fold but lower than 10 fold between the IC50 in the HAP1 MTAP-intact cell line and the HAP1 MTAP-deleted cell line) | A (a Ki ratio greater than or equal to 10 fold between the Ki in the presence of SAM and the Ki in the presence of MTA)
< 1000 nM | 1000 to 10000 nM | 50 to 500 nM | 500 to 5000 nM | 50 to 500 nM | O=C(NC[C@H](O)CN1CCc2cc(OCc3cnco3)ccc2C1)c1ccnc(NC2CCN(C(=O)C3CCC3)CC2)c1 [Compound 433, 2-[[1-(cyclobutanecarbonyl)-4-piperidyl]amino]-N-[(2S)-2-hydroxy-3-[6-(oxazol-5-ylmethoxy)-3N-dihydro-1H-isoquinolin-2-yl]propyl]pyridine-4-carboxamide] | B* (an IC50 ratio greater than or equal to 3 fold but lower than 10 fold between the IC50 in the HAP1 MTAP-intact cell line and the HAP1 MTAP-deleted cell line) | A (a Ki ratio greater than or equal to 10 fold between the Ki in the presence of SAM and the Ki in the presence of MTA)
< 1000 nM | 1000 to 10000 nM | 50 to 500 nM | ≥ 5000 nM | 50 to 500 nM | CCCC(=O)N1CC(Nc2cc(C(=O)NC[C@H](O)CN3CCc4cc(OCc5cnco5)ccc4C3)ccn2)C1 [Compound 434] | C* (an IC50 ratio of less than 3 fold between the IC50 in the HAP1 MTAP-intact cell line and the HAP1 MTAP-deleted cell line) | A (a Ki ratio greater than or equal to 10 fold between the Ki in the presence of SAM and the Ki in the presence of MTA)
1000 to 10000 nM | ≥ 10000 nM | 50 to 500 nM | ≥ 5000 nM | 50 to 500 nM | COCCN(C)c1cc(C(=O)NC[C@H](O)CN2CCc3c(ccc(OCc4ocnc4C)c3C)C2)cc(NC2CCC2)n1 [Compound 437, 2-(cyclobutylamino)-N-[(2S)-2-hydroxy-3-{5-methyl-6-[(4-methyl-1,3-oxazol-5-yl)methoxy]-1,2,3,4-tetrahydroisoquinolin-2-yl}propyl]-6-[(2-methoxyethyl)(methyl)amino]pyridine-4-carboxamide] | B* (an IC50 ratio greater than or equal to 3 fold but lower than 10 fold between the IC50 in the HAP1 MTAP-intact cell line and the HAP1 MTAP-deleted cell line) | A (a Ki ratio greater than or equal to 10 fold between the Ki in the presence of SAM and the Ki in the presence of MTA)
< 1000 nM | 1000 to 10000 nM | 50 to 500 nM | ≥ 5000 nM | 50 to 500 nM | Cc1ncoc1COc1ccc2c(c1)CCN(C[C@@H](O)CNC(=O)c1cc(CC(C)C)nc(NC3CCC3)c1)C2 [Compound 439, 2-(cyclobutylamino)-N-[(2S)-2-hydroxy-3-{6-[(4-methyl-1,3-oxazol-5-yl)methoxy]-1,2,3,4-tetrahydroisoquinolin-2-yl}propyl]-6-(2-methylpropyl)pyridine-4-carboxamide] | C* (an IC50 ratio of less than 3 fold between the IC50 in the HAP1 MTAP-intact cell line and the HAP1 MTAP-deleted cell line) | A (a Ki ratio greater than or equal to 10 fold between the Ki in the presence of SAM and the Ki in the presence of MTA)
